We go through 10 compounds from ChEMBL document CHEMBL1121427, “Decomposition of pharmacological activity indices into mutually independent components using principal component analysis” (J Med Chem, 1980).

The nature of data set [1]: -Log C was determined by performing the electroshock minimum test. Format: ADME. Set-up: unit not given here.
A short description of data set [2]: -Log C was determined by performing the foot shock test. The format is ADME. Details: unit not given here.
A short description of data set [3]: -Log C was determined by performing the incl screen test. Format: ADME. Set-up: unit not given here.
The nature of data set [4]: -Log C was determined by performing the maximum electroshock test. Format: ADME. Set-up: unit not given here.
A short description of data set [5]: -Log C was determined by performing the pentylenetetrazole test. The format is ADME. Details: unit not given here.
In a further data set the test system is Aspergillus niger. In words: The compound was evaluated for activity against Aspergillus niger. The format is functional.
The subject of a further data set is Albifimbria verrucaria. In words: The compound was evaluated for activity against Myrothecium verrucaria. The format is functional.
In the next data set the test system is Trichophyton benhamiae. In words: The compound was evaluated for activity against Trichophyton mentagrophytes. Format: functional, Arthroderma benhamiae.

Turning to `CN(C)c1ccc2c(c1)C(c1ccccc1)=NCC(=O)N2C`, the “-Log C” value came out at 0.06 in data set [1]; 0.87 in data set [2]; 0.29 in data set [3]; 0.5 in data set [4]; 1.7 in data set [5].

`CC(C)(C)N1C(=O)CN=C(c2ccccc2)c2cc(Cl)ccc21`: the “-Log C” value in data set [1] stood at 0.39; in data set [2] it was 0.51; in data set [3], 0.19; in data set [4], 0.26; in data set [5], 0.39.

Turning to `Oc1c(F)ccc2cccnc12`, the “-Log C” value in the data set on Aspergillus niger is 1.32 mM l-1; with Albifimbria verrucaria it was 1.75 mM l-1; in the data set on Trichophyton benhamiae, 1.92 mM l-1.

Regarding `CN1C(=O)CN=C(c2ccccc2)c2cc(C#N)ccc21`, the “-Log C” value in data set [1] came out at 0.14; in data set [2] it was 1.74; in data set [3] it was 1.14; in data set [4], 1.29; in data set [5], 2.36.

As to `Cc1ccccc1C1=NCC(=O)Nc2ccc(Cl)cc21`, the “-Log C” value worked out at 0.19 in data set [1]; 0.45 in data set [2]; 0.28 in data set [3]; 1.13 in data set [4]; 1.57 in data set [5].

On to `CCN1C(=O)CN=C(c2ccccc2)c2cc(Cl)ccc21`, for which the “-Log C” value in data set [1] is on record as 0.3; in data set [2], 1.17; in data set [3], 0.6; in data set [4], 1.56; in data set [5] it was 1.87.

With `Cc1ccc2c(c1)C(c1ccccc1)=NCC(=O)N2`, the “-Log C” value in data set [1] was found to be 0.51; in data set [2], 0.4; in data set [3] it was 0.4; in data set [4] it was 1.75; in data set [5], 1.55.

Regarding `N#Cc1ccc2c(c1)C(c1ccccc1)=NCC(=O)N2`, the “-Log C” value in data set [1] worked out at 0.41; in data set [2] it was 0.82; in data set [3] it was 0.54; in data set [4], 0.89; in data set [5], 2.3.

On to `CN(C)c1ccc2c(c1)C(c1ccccc1)=NCC(=O)N2`, for which the “-Log C” value in data set [1] amounted to 0.38; in data set [2] it was 0.45; in data set [3], 0.25; in data set [4] it was 0.12; in data set [5] it was 0.82.

Turning to `O=C1CN=C(c2ccccc2)c2cc(C(F)(F)F)ccc2N1` [RO-052904], the “-Log C” value in data set [1] came to 1.16; in data set [2], 1.48; in data set [3], 1.48; in data set [4], 1.78; in data set [5], 2.48.
